Test in all cases: mass response relative to vehicle control (EMD distance of treated vs reference mass distribution minus control baseline) (% of mean reference cell mass); higher = larger drug-induced change in single-cell mass distribution (stronger response)
One test has as its system PC9. As for the experimental part:
(§1)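 Cancer cell lines were treated in vitro with drugs at the listed doses (about 24 h; 0.25% DMSO vehicle). Single-cell buoyant mass was measured on suspended microchannel resonator instruments with CNN image curation, 2500 cells per condition. Mass response is the Earth Mover's Distance to vehicle-treated reference cells as % of mean reference mass.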

Another test concerns MOLM-13. As for the experimental part:
as §1

Another test has as its system MM1S ATCC. As to the method:
as §1

Molecules are shown by their SMILES. ± gives the uncertainty stated by the source.

The record followed here is the supplement of paper PMC9701192.

For `COc1cc([C@@H]2c3cc4c(cc3[C@@H](O[C@@H]3O[C@@H]5CO[C@@H](C)O[C@H]5[C@H](O)[C@H]3O)[C@H]3COC(=O)[C@H]23)OCO4)cc(OC)c1O` [Etoposide], the mass response in the test with PC9 (0.01 µM) was determined as 0.492 ± 1.6; in the test with PC9 (0.1 µM), 0.732 ± 2.1; with PC9 (1 µM), 12.3 ± 1; in the test with PC9 (10 µM), 36.2 ± 0.97.
As to `COc1cc2ncnc(Nc3ccc(F)c(Cl)c3)c2cc1OCCCN1CCOCC1` [Gefitinib], the mass response with PC9 (0.05 µM) was 7.94 ± 10; with PC9 (0.5 µM), 23.1 ± 11; with PC9 (5 µM) it was 35.1 ± 9.7; in the test on PC9 (50 µM) it was 81.56 ± 0.43.
In the case of `CCc1nc(C(N)=O)c(Nc2ccc(N3CCC(N4CCN(C)CC4)CC3)c(OC)c2)nc1NC1CCOCC1` [Gilteritinib], the mass response was -3.18 ± 4.6 with MOLM-13 (0.002 µM), 13.3 ± 3.4 in the test with MOLM-13 (0.02 µM), 35 ± 2.9 in the test with MOLM-13 (0.2 µM) and 33.9 ± 5.4 in the test on MOLM-13 (2 µM).
As to `CC(=O)[C@]1(O)Cc2c(O)c3c(c(O)c2[C@@H](O[C@H]2C[C@H](N)[C@H](O)[C@H](C)O2)C1)C(=O)c1ccccc1C3=O` [Idarubicin], the mass response in the test with MOLM-13 (0.001 µM) was -0.127 ± 1.4; in the test with MOLM-13 (0.01 µM), 19.1 ± 2.9; in the test with MOLM-13 (0.1 µM) it was 33.1 ± 2; in the test with MOLM-13 (1 µM) it was 36.6 ± 2.1.
Take `C/C(=C\c1csc(C)n1)[C@@H]1C[C@@H]2O[C@]2(C)CCC[C@H](C)[C@H](O)[C@@H](C)C(=O)C(C)(C)[C@@H](O)CC(=O)N1` [Ixabepilone]: the mass response stood at 19.5 ± 1.5 in the test with PC9 (0.01 µM), 37.6 ± 4.5 in the test on PC9 (0.1 µM), 36.7 ± 4.5 with PC9 (1 µM) and 36.8 ± 5.7 with PC9 (10 µM).
For the molecule `CC(C)C[C@H](NC(=O)CNC(=O)c1cc(Cl)ccc1Cl)B(O)O` [Ixazomib], the mass response with MM1S ATCC (0.00025 µM) is 2.33 ± 1.5; in the test on MM1S ATCC (0.0025 µM) it was -0.705 ± 2.2; in the test on MM1S ATCC (0.025 µM), 10.7 ± 0.64; in the test with MM1S ATCC (0.25 µM) it was 9.05 ± 2.4.
As to `Nc1cccc2c1CN(C1CCC(=O)NC1=O)C2=O` (centres undefined) [Lenalidomide], the mass response in the test on MM1S ATCC (0.1 µM) turned out to be 1.82 ± 5.2; in the test with MM1S ATCC (1 µM) it was 4.81 ± 3.5; in the test on MM1S ATCC (10 µM), 4.13 ± 1.8; in the test on MM1S ATCC (0.0001 M), 14.4 ± 1.9.
Turning to `N[C@@H](Cc1ccc(N(CCCl)CCCl)cc1)C(=O)O` [Melphalan], the mass response is 9.64 ± 4.4 in the test with MM1S ATCC (0.1 µM), 17.5 ± 4.6 in the test on MM1S ATCC (1 µM), 12.9 ± 2.5 in the test on MM1S ATCC (10 µM) and 29.6 ± 1.6 in the test with MM1S ATCC (50 µM).
For the molecule `CO[C@@H]1[C@H](N(C)C(=O)c2ccccc2)C[C@H]2O[C@]1(C)n1c3ccccc3c3c4c(c5c6ccccc6n2c5c31)C(=O)NC4` [Midostaurin], the mass response came out at 14.9 ± 0.91 with MOLM-13 (0.02 µM), 38.7 ± 1.5 in the test with MOLM-13 (0.2 µM), 27.7 ± 0.98 in the test on MOLM-13 (2 µM) and 30.2 ± 2.4 with MOLM-13 (20 µM).
For the molecule `C=CC(=O)Nc1cc(Nc2nccc(-c3cn(C)c4ccccc34)n2)c(OC)cc1N(C)CCN(C)C` [Osimertinib], the mass response in the test on PC9 (0.05 µM) was determined as 11.8 ± 3; in the test on PC9 (0.5 µM) it was 9.37 ± 6.4; with PC9 (5 µM), 7.62 ± 2.4; in the test on PC9 (50 µM), 65.8 ± 0.9.
`CC(=O)O[C@H]1C(=O)[C@@]2(C)[C@H]([C@H](OC(=O)c3ccccc3)[C@]3(O)C[C@H](OC(=O)[C@H](O)[C@@H](NC(=O)c4ccccc4)c4ccccc4)C(C)=C1C3(C)C)[C@]1(OC(C)=O)CO[C@@H]1C[C@@H]2O` [Paclitaxel]: the mass response in the test on PC9 (0.005 µM) is 0.247 ± 0.78; with PC9 (0.025 µM), 26.9 ± 1.3; with PC9 (0.05 µM), 30.7 ± 0.9; with PC9 (0.1 µM), 30.6 ± 1.4.
As for `Nc1cccc2c1C(=O)N(C1CCC(=O)NC1=O)C2=O` (centres undefined) [Pomalidomide], the mass response stood at 8.45 ± 2.3 in the test on MM1S ATCC (0.02 µM), 18.1 ± 5.3 with MM1S ATCC (0.2 µM), 17.1 ± 5.7 in the test with MM1S ATCC (2 µM) and 16.7 ± 3.2 in the test on MM1S ATCC (20 µM).
On to `CC(C)(C)c1cc(NC(=O)Nc2ccc(-c3cn4c(n3)sc3cc(OCCN5CCOCC5)ccc34)cc2)no1` [Quizartinib], for which the mass response amounted to 1.17 ± 1.9 in the test on MOLM-13 (0.0001 µM), 16.3 ± 0.82 with MOLM-13 (0.001 µM), 27 ± 0.32 with MOLM-13 (0.01 µM) and 25.8 ± 0.77 in the test with MOLM-13 (0.1 µM).
On to `CNC(=O)c1cc(Oc2ccc(NC(=O)Nc3ccc(Cl)c(C(F)(F)F)c3)c(F)c2)ccn1` [Regorafenib], for which the mass response in the test on MM1S ATCC (0.04 µM) was 1.84 ± 1.4; in the test with MM1S ATCC (0.4 µM), 0.733 ± 1.4; in the test with MM1S ATCC (4 µM) it was 10.9 ± 0.83; with MM1S ATCC (20 µM) it was 44.9 ± 2.9.
Consider `O=C(/C=C\n1cnc(-c2cc(C(F)(F)F)cc(C(F)(F)F)c2)n1)NNc1cnccn1` [Selinexor], for which the mass response in the test with MM1S ATCC (0.005 µM) was -0.878 ± 0.35; in the test with MM1S ATCC (0.05 µM), 4.05 ± 1.2; with MM1S ATCC (0.5 µM) it was 12.7 ± 3.1; in the test with MM1S ATCC (5 µM) it was 12 ± 3.1.
Turning to `CNC(=O)c1cc(Oc2ccc(NC(=O)Nc3ccc(Cl)c(C(F)(F)F)c3)cc2)ccn1` [Sorafenib], the mass response in the test with MOLM-13 (0.0005 µM) is -1.17 ± 0.94; in the test on MOLM-13 (0.005 µM), 10.6 ± 1; in the test with MOLM-13 (0.05 µM), 32 ± 0.86; with MOLM-13 (0.5 µM) it was 35.2 ± 0.46.
